Measured values from patent US20240148709A1, “METHODS OF TREATING EYE PAIN AND EYE DISORDERS” (Aisa Pharma, Inc., priority 2022, published 2024).

System: participants with SSc-RP
Experiment: Scleroderma Health Assessment Questionnaire (SHAQ), Phase 2a study Part A
Assay type: in vivo, human
Settings: cilnidipine 10 mg and/or tadalafil 5 mg arms
Experimental: Part A—double-blind, placebo-controlled, parallel-group, dose selection, will assess the safety and efficacy of two doses of cilnidipine (10 mg and 20 mg), alone and in combination with tadalafil. A total of 36 participants will be randomized to one of six prespecified treatment arms. Refer to FIG. 1 for treatment arms in Part A of the study. Dosing last for 12 (±2) days in which participants will self-administer daily doses of assigned treatment in the morning. Each participant will take one capsule and one tablet to blind the active therapy being received.
The standard, validated, patient reported outcome measures tool for SSc patients, the SHAQ, will be collected at the time points specified in the study schedules (FIG. 2 and FIGS. 3A and 3B) to assess the participant's quality of life. The SHAQ includes a Raynaud's VAS that will also be reported separately.
Results: Patients in the study were administered the Scleroderma Health Assessment Questionnaire (SHAQ) at the time of study entry and during clinic visits following the treatment period. The study is a two-part, parallel arm design, prospective, double-blind, randomized study conducted in Australia (Flinders Medical Center). 27 patients were randomized into the first phase of the study, following which a DSMB meeting was held, which reviewed data on the primary study endpoint and key Raynaud's secondary endpoints. Data on the SHAQ was not available for the DSMB to review. The mITT population, in which any data was available post treatment was 24 patients was the analysis population for this first part of the study. The second part (i.e., part B) of the study will randomize 36 patients in a double blind, randomized, prospective, placebo controlled, crossover study. In the first part (i.e., Part A) of the study for which data is presented, patients were randomized into 6 groups, cilnidipine at two doses (10 and 20 mg) alone and in combination with tadalafil 5 mg, tadalafil 5 mg alone, and placebo. […] The DSMB recommended that the study proceed into its double blind prospective cross overpowered second phase and compare cilnidipine 20 mg alone to placebo.

Compound: COCCOC(=O)C1=C(C)NC(C)=C(C(=O)OC/C=C/c2ccccc2)C1c1cccc([N+](=O)[O-])c1 (stereo not shown) [Cilnidipine, cilnidipine]
- SHAQ Overall Change in Severity, Percent Change from Baseline, Max: −26.8%
- SHAQ Overall Change in Severity, Percent Change from Baseline, Mean (SD): −56.96 (38.271) %
- SHAQ Overall Change in Severity, Percent Change from Baseline, Median: −44.12%
- SHAQ Overall Change in Severity, Percent Change from Baseline, Min: −100.0%
- SHAQ Overall Change in Severity, Percent Change from Baseline, Q1: −100.00%
- SHAQ Overall Change in Severity, Percent Change from Baseline, Q3: −26.76%
- SHAQ Standard disability index, Change from Baseline, Max: 0.00, 0.00
- SHAQ Standard disability index, Change from Baseline, Mean (SD): 0.0 (0.0000)
- SHAQ Standard disability index, Change from Baseline, Median: 0.000
- SHAQ Standard disability index, Change from Baseline, Min: 0.00, 0.00
- SHAQ Standard disability index, Change from Baseline, Q1: 0.000, 0.000
- SHAQ Standard disability index, Change from Baseline, Q3: 0.000, 0.000
- SHAQ Standard disability index, In Clinic Visit (Day 12), Max: 1.50
- SHAQ Standard disability index, In Clinic Visit (Day 12), Mean (SD): 0.656 (0.7731)
- SHAQ Standard disability index, In Clinic Visit (Day 12), Median: 0.563
- SHAQ Standard disability index, In Clinic Visit (Day 12), Min: 0.00
- SHAQ Standard disability index, In Clinic Visit (Day 12), Q1: 0.000
- SHAQ Standard disability index, In Clinic Visit (Day 12), Q3: 1.313
- SHAQ Standard disability index, Percent Change from Baseline, Max: 0.0, 0.0%
- SHAQ Standard disability index, Percent Change from Baseline, Mean (SD): 0.0 (0.000) %
- SHAQ Standard disability index, Percent Change from Baseline, Median: 0.00%
- SHAQ Standard disability index, Percent Change from Baseline, Min: 0.0, 0.0%
- SHAQ Standard disability index, Percent Change from Baseline, Q1: 0.00, 0.00%
- SHAQ Standard disability index, Percent Change from Baseline, Q3: 0.00, 0.00%
- SHAQ Visual Analog Scale-Breathing Problems, Change from Baseline, Max: 0.00
- SHAQ Visual Analog Scale-Breathing Problems, Change from Baseline, Mean (SD): −0.300 (0.6000)
- SHAQ Visual Analog Scale-Breathing Problems, Change from Baseline, Median: 0.000
- SHAQ Visual Analog Scale-Breathing Problems, Change from Baseline, Min: −1.20
- SHAQ Visual Analog Scale-Breathing Problems, Change from Baseline, Q1: −0.600
- SHAQ Visual Analog Scale-Breathing Problems, Change from Baseline, Q3: 0.000
- SHAQ Visual Analog Scale-Breathing Problems, In Clinic Visit (Day 12), Max: 6.30
- SHAQ Visual Analog Scale-Breathing Problems, In Clinic Visit (Day 12), Mean (SD): 1.575 (3.1500)
- SHAQ Visual Analog Scale-Breathing Problems, In Clinic Visit (Day 12), Median: 0.000
- SHAQ Visual Analog Scale-Breathing Problems, In Clinic Visit (Day 12), Min: 0.00
- SHAQ Visual Analog Scale-Breathing Problems, In Clinic Visit (Day 12), Q1: 0.000
- SHAQ Visual Analog Scale-Breathing Problems, In Clinic Visit (Day 12), Q3: 3.150
- SHAQ Visual Analog Scale-Breathing Problems, Percent Change from Baseline, Max: −16.0, −16.0%
- SHAQ Visual Analog Scale-Breathing Problems, Percent Change from Baseline, Mean (SD): −16.00%
- SHAQ Visual Analog Scale-Breathing Problems, Percent Change from Baseline, Median: −16.00%
- SHAQ Visual Analog Scale-Breathing Problems, Percent Change from Baseline, Min: −16.0, −16.0%
- SHAQ Visual Analog Scale-Breathing Problems, Percent Change from Baseline, Q1: −16.00, −16.00%
- SHAQ Visual Analog Scale-Breathing Problems, Percent Change from Baseline, Q3: −16.00, −16.00%
- SHAQ Visual Analog Scale-Intestinal Problems, Change from Baseline, Max: 0.00
- SHAQ Visual Analog Scale-Intestinal Problems, Change from Baseline, Mean (SD): −1.875 (2.1838)
- SHAQ Visual Analog Scale-Intestinal Problems, Change from Baseline, Median: −1.550
- SHAQ Visual Analog Scale-Intestinal Problems, Change from Baseline, Min: −4.40
- SHAQ Visual Analog Scale-Intestinal Problems, Change from Baseline, Q1: −3.700
- SHAQ Visual Analog Scale-Intestinal Problems, Change from Baseline, Q3: −0.050
- SHAQ Visual Analog Scale-Intestinal Problems, In Clinic Visit (Day 12), Max: 3.80
- SHAQ Visual Analog Scale-Intestinal Problems, In Clinic Visit (Day 12), Mean (SD): 1.100 (1.8221)
- SHAQ Visual Analog Scale-Intestinal Problems, In Clinic Visit (Day 12), Median: 0.300
- SHAQ Visual Analog Scale-Intestinal Problems, In Clinic Visit (Day 12), Min: 0.00
- SHAQ Visual Analog Scale-Intestinal Problems, In Clinic Visit (Day 12), Q1: 0.000
- SHAQ Visual Analog Scale-Intestinal Problems, In Clinic Visit (Day 12), Q3: 2.200
- SHAQ Visual Analog Scale-Intestinal Problems, Percent Change from Baseline, Max: −44.1%
- SHAQ Visual Analog Scale-Intestinal Problems, Percent Change from Baseline, Mean (SD): −77.37 (29.418) %
- SHAQ Visual Analog Scale-Intestinal Problems, Percent Change from Baseline, Median: −88.00%
- SHAQ Visual Analog Scale-Intestinal Problems, Percent Change from Baseline, Min: −100.0%
- SHAQ Visual Analog Scale-Intestinal Problems, Percent Change from Baseline, Q1: −100.00%
- SHAQ Visual Analog Scale-Intestinal Problems, Percent Change from Baseline, Q3: −44.12%
- SHAQ Visual Analog Scale-Pain, Change from Baseline, Max: 0.30
- SHAQ Visual Analog Scale-Pain, Change from Baseline, Mean (SD): −0.100 (0.4243)
- SHAQ Visual Analog Scale-Pain, Change from Baseline, Median: 0.000
- SHAQ Visual Analog Scale-Pain, Change from Baseline, Min: −0.70
- SHAQ Visual Analog Scale-Pain, Change from Baseline, Q1: −0.350
- SHAQ Visual Analog Scale-Pain, Change from Baseline, Q3: 0.150
- SHAQ Visual Analog Scale-Pain, In Clinic Visit (Day 12), Max: 3.60
- SHAQ Visual Analog Scale-Pain, In Clinic Visit (Day 12), Mean (SD): 1.875 (1.6641)
- SHAQ Visual Analog Scale-Pain, In Clinic Visit (Day 12), Median: 1.950
- SHAQ Visual Analog Scale-Pain, In Clinic Visit (Day 12), Min: 0.00
- SHAQ Visual Analog Scale-Pain, In Clinic Visit (Day 12), Q1: 0.500
- SHAQ Visual Analog Scale-Pain, In Clinic Visit (Day 12), Q3: 3.250
- SHAQ Visual Analog Scale-Pain, Percent Change from Baseline, Max: 11.5%
- SHAQ Visual Analog Scale-Pain, Percent Change from Baseline, Mean (SD): −9.88 (27.711) %
- SHAQ Visual Analog Scale-Pain, Percent Change from Baseline, Median: 0.00%
- SHAQ Visual Analog Scale-Pain, Percent Change from Baseline, Min: −41.2%
- SHAQ Visual Analog Scale-Pain, Percent Change from Baseline, Q1: −41.18%
- SHAQ Visual Analog Scale-Pain, Percent Change from Baseline, Q3: 11.54%
- SHAQ Visual Analog Scale-Raynaud's, Change from Baseline, Max: 1.50
- SHAQ Visual Analog Scale-Raynaud's, Change from Baseline, Mean (SD): 0.325 (1.0468)
- SHAQ Visual Analog Scale-Raynaud's, Change from Baseline, Median: 0.350
- SHAQ Visual Analog Scale-Raynaud's, Change from Baseline, Min: −0.90
- SHAQ Visual Analog Scale-Raynaud's, Change from Baseline, Q1: −0.500
- SHAQ Visual Analog Scale-Raynaud's, Change from Baseline, Q3: 1.150
- SHAQ Visual Analog Scale-Raynaud's, In Clinic Visit (Day 12), Max: 4.30
